Test results as given in publication PMC6196238, “Novobiocin, a Newly Found TRPV1 Inhibitor, Attenuates the Expression of TRPV1 in Rat Intestine and Intestinal Epithelial Cell Line IEC-6” (Frontiers in Pharmacology, 2018).

Assays:
[1] = tested on: IEC-6/TRPV1- cells; assay: MTT cell viability assay
Method: (§1) The rat intestinal epithelial cell line IEC-6, purchased from Kunming Institute of Zoology. CAS, was cultured in Dulbecco’s Modified Eagle’s Medium (DMEM) (Gibco, Grand Island, NY, United States) supplemented with 10% fetal bovine serum (FBS; Gibco) at 37°C in a humidified atmosphere of 5% CO2.
(§2) The plasmid pENTER containing the TRPV1 coding sequence NM_080704 was used as template in a PCR with the following primers: 5′-[…]-3′ (forward) and 5′-[…] (reverse). And synthetic small interfering RNA (siRNA) specific for rat TRPV1 (TRPV1-siRNA) was purchased from Vigene Bioscience (Rockville, MD, United States) with the following sequences: 5′-[…]-3′ (forward) and 5′-[…]-3′ (reverse) for TRPV1-siRNA. The transfecting process was conducted by using the lipofectamin® 3000 transfection reagent (Invitrogen^TM, Carlsbad, CA, United States), according to the manufacturer’s protocol.
(§3) The transfected cells were plated in 96-well plates. […] Optical density at 490 nm was used to evaluate cell viability in 96-well plates.

[2] = tested on: IEC-6/TRPV1+ cells; assay: MTT cell viability assay; conditions: for Cell Survival: IEC-6/TRPV1+
Method: as §1, §2, §3

[3] = tested on: TRPV1; assay: TRPV1 mRNA and protein expression in rat intestine after oral administration (qRT-PCR, western blot); type: in vivo
Method: Forty male SD rats (200–250 g) were used for orally administered experiment. The animals were arbitrarily distributed in eight different groups and each group was treated with its respective dose of calculated amount. Group I was orally administered 0.9% normal saline (5 mL⋅kg^-1). Group II labeled as positive control was orally administered with 10 μM RR (5 mL⋅kg^-1). Rats of Group […] were treated with 5 mL⋅kg^-1 of NOVO dissolved in 0.9% normal saline (5, 10, 25, and 50 μM, respectively). The animals were orally administered twice a day for 2 weeks. After another 14 days, animals were sacrificed and then the jejunum, ileum and colon tissue were excised. The intestinal tissues were frozen in liquid nitrogen, and then stored at -80°C for protein or ribonucleic acid (RNA) isolation.
qRT-PCR was performed to evaluate TRPV1 mRNA expression after NOVO treatment. The total RNA of the cells or tissues was isolated with an RNA isolation plus kit (Takara Shuzo, Kyoto, Japan), according to the manufacturer’s protocol. The quality of RNA was confirmed by agarose gel electrophoresis and an optical density measurement of A260/A280. The cDNAs were prepared using SYBR® Premix Ex Taq^TMII (Takara Shuzo, Kyoto, Japan) and the following primers: 5′-[…]-3′ and 5′-[…]-3′ for TRPV1, and 5′-[…]-3′, 5′-[…]-3′ for GAPDH were carried out by using the LightCycler480 System. The relative expression was calculated by the 2^-ΔΔC(t) method ([Livak and Schmittgen, 2001]).
After treatment, the cells or tissues were collected and washed with PBS. Membrane protein extracts were obtained with Membrane Protein Extraction Kit (Thermo Fisher Scientific Inc, United States), according to the manufacturer’s protocol. Protein concentrations were quantified by using the BCA Protein Assay kit (Beyotime, Shanghai, China). Equal amounts of protein were resolved by SDS-PAGE on a 10% polyacrylamide gel and transferred onto a polyvinylidene fluoride membrane. […]

[4] = tested on: rat intestine (jejunum, ileum, colon); assay: Ussing chamber intestinal permeability of CAP; type: in vitro ADME; conditions: for fold-inhibition factor of CAP Papp: vs CAP only
Method: NOVO was also prepared in HEPES buffer to yield final concentration at 5, 10, 25, 50, 100, and 200 μM. […] Different portions of the rat intestine were excised and flushed with HEPES buffer, including jejunum (after the first 5 cm of the top of small intestine), ileum (the distal part of small intestine) and colon (proximal to cecal-colonic junction), and incubated in the ice-cold HEPES buffer. Next, 3–4 cm of the intestine was clipped, and the serosa was removed rapidly on an ice-cold glass. The intestinal segments were fixed in the Ussing chamber. Finally, 7 mL of HEPES buffer was added to the receiving side while an equal volume of drug solution to the dosing side. […] All the samples were kept at -20°C till HPLC analysis.
In brief, samples were injected into a C18 column (3.5 μm, 2.1 mm × 100 mm). An aliquot of 20 μL of sample solutions were injected.

O=C(Nc1ccccc1Br)N[C@@H]1CCN(c2ccc(C(F)(F)F)cn2)C1 [SB-705498]
Cell Survival ([1]; 0.001 μM, incubation 12 h): 1.261 ± 0.268
Cell Survival ([1]; 0.001 μM, incubation 24 h): 0.999 ± 0.082
Cell Survival ([1]; 0.01 μM, incubation 12 h): 1.158 ± 0.144
Cell Survival ([1]; 0.01 μM, incubation 24 h): 0.968 ± 0.218
Cell Survival ([1]; 0.1 μM, incubation 12 h): 1.169 ± 0.333
Cell Survival ([1]; 0.1 μM, incubation 24 h): 0.962 ± 0.184
Cell Survival ([1]; 1 μM, incubation 12 h): 1.001 ± 0.229
Cell Survival ([1]; 1 μM, incubation 24 h): 0.933 ± 0.077
Cell Survival ([1]; 5 μM, incubation 12 h): 0.931 ± 0.296
Cell Survival ([1]; 5 μM, incubation 24 h): 0.907 ± 0.039
Cell Survival ([2]; 0.001 μM, incubation 12 h): 1.114 ± 0.190
Cell Survival ([2]; 0.001 μM, incubation 24 h): 1.018 ± 0.061
Cell Survival ([2]; 0.01 μM, incubation 12 h): 1.101 ± 0.236
Cell Survival ([2]; 0.01 μM, incubation 24 h): 1.129 ± 0.185
Cell Survival ([2]; 0.1 μM, incubation 12 h): 1.274 ± 0.223
Cell Survival ([2]; 0.1 μM, incubation 24 h): 1.118 ± 0.139
Cell Survival ([2]; 1 μM, incubation 12 h): 1.203 ± 0.139
Cell Survival ([2]; 1 μM, incubation 24 h): 1.052 ± 0.100
Cell Survival ([2]; 5 μM, incubation 12 h): 1.276 ± 0.156
Cell Survival ([2]; 5 μM, incubation 24 h): 0.976 ± 0.098

CO[C@@H]1[C@@H](OC(N)=O)[C@@H](O)[C@H](Oc2ccc3c(O)c(NC(=O)c4ccc(O)c(CC=C(C)C)c4)c(=O)oc3c2C)OC1(C)C [NOVO, novobiocin]
TRPV1 protein expression in rat intestine ([3]; 5 μM NOVO p.o., western blot): not sufficient to attenuate TRPV1 protein expression
TRPV1 mRNA level in rat intestine ([3]; 14 days p.o. NOVO 5-50 μM twice per day, jejunum, ileum, colon, Figure 2D): decreased markedly
TRPV1 protein level in rat intestine ([3]; 14 days p.o. NOVO twice per day, western blot, Figure 2E): decreased the TRPV1 protein level in a dose-dependent manner
permeability of CAP in the Ussing chamber experiment ([4]; NOVO concentration higher than 100 μM, data not shown): increased
Papp of CAP ([4]; colon, CAP + 5 μM inhibitor): 8.28 ± 2.55 ×10^-6, cm⋅s^-1
fold-inhibition factor of CAP Papp ([4]; colon, CAP + 5 μM inhibitor): 2.41 fold
Papp of CAP ([4]; colon, CAP + 10 μM inhibitor): 6.05 ± 1.85 ×10^-6, cm⋅s^-1
fold-inhibition factor of CAP Papp ([4]; colon, CAP + 10 μM inhibitor): 3.30 fold
Papp of CAP ([4]; colon, CAP + 25 μM inhibitor): 5.65 ± 2.04 ×10^-6, cm⋅s^-1
fold-inhibition factor of CAP Papp ([4]; colon, CAP + 25 μM inhibitor): 3.54 fold
Papp of CAP ([4]; colon, CAP + 50 μM inhibitor): 9.79 ± 2.20 ×10^-6, cm⋅s^-1
fold-inhibition factor of CAP Papp ([4]; colon, CAP + 50 μM inhibitor): 2.04 fold
Papp of CAP ([4]; ileum, CAP + 5 μM inhibitor): 3.40 ± 0.76 ×10^-6, cm⋅s^-1
fold-inhibition factor of CAP Papp ([4]; ileum, CAP + 5 μM inhibitor): 2.17 fold
Papp of CAP ([4]; ileum, CAP + 10 μM inhibitor): 2.17 ± 0.58 ×10^-6, cm⋅s^-1
fold-inhibition factor of CAP Papp ([4]; ileum, CAP + 10 μM inhibitor): 3.40 fold
Papp of CAP ([4]; ileum, CAP + 25 μM inhibitor): 4.02 ± 0.42 ×10^-6, cm⋅s^-1
fold-inhibition factor of CAP Papp ([4]; ileum, CAP + 25 μM inhibitor): 1.83 fold
Papp of CAP ([4]; ileum, CAP + 50 μM inhibitor): 5.23 ± 0.25 ×10^-6, cm⋅s^-1
fold-inhibition factor of CAP Papp ([4]; ileum, CAP + 50 μM inhibitor): 1.41 fold
Papp of CAP ([4]; jejunum, CAP + 5 μM inhibitor): 1.96 ± 0.25 ×10^-6, cm⋅s^-1
fold-inhibition factor of CAP Papp ([4]; jejunum, CAP + 5 μM inhibitor): 1.60 fold
Papp of CAP ([4]; jejunum, CAP + 10 μM inhibitor): 1.36 ± 0.47 ×10^-6, cm⋅s^-1
fold-inhibition factor of CAP Papp ([4]; jejunum, CAP + 10 μM inhibitor): 2.31 fold
Papp of CAP ([4]; jejunum, CAP + 25 μM inhibitor): 1.60 ± 0.38 ×10^-6, cm⋅s^-1
fold-inhibition factor of CAP Papp ([4]; jejunum, CAP + 25 μM inhibitor): 1.97 fold
Papp of CAP ([4]; jejunum, CAP + 50 μM inhibitor): 2.11 ± 0.04 ×10^-6, cm⋅s^-1
fold-inhibition factor of CAP Papp ([4]; jejunum, CAP + 50 μM inhibitor): 1.49 fold
Cell Survival ([1]; 1.25 μM, incubation 12 h): 1.261 ± 0.512
Cell Survival ([1]; 1.25 μM, incubation 24 h): 1.192 ± 0.099
Cell Survival ([1]; 2.5 μM, incubation 12 h): 1.063 ± 0.361
Cell Survival ([1]; 2.5 μM, incubation 24 h): 1.113 ± 0.177
Cell Survival ([1]; 5 μM, incubation 12 h): 1.128 ± 0.274
Cell Survival ([1]; 5 μM, incubation 24 h): 0.952 ± 0.134
Cell Survival ([1]; 10 μM, incubation 12 h): 1.101 ± 0.101
Cell Survival ([1]; 10 μM, incubation 24 h): 0.861 ± 0.088
Cell Survival ([1]; 20 μM, incubation 12 h): 1.011 ± 0.194
Cell Survival ([1]; 20 μM, incubation 24 h): 0.749 ± 0.138
Cell Survival ([1]; 40 μM, incubation 12 h): 1.051 ± 0.214
Cell Survival ([1]; 40 μM, incubation 24 h): 0.647 ± 0.015
Cell Survival ([1]; 50 μM, incubation 12 h): 1.123 ± 0.293
Cell Survival ([1]; 50 μM, incubation 24 h): 0.591 ± 0.261
Cell Survival ([2]; 1.25 μM, incubation 12 h): 1.208 ± 0.172
Cell Survival ([2]; 1.25 μM, incubation 24 h): 1.353 ± 0.192
Cell Survival ([2]; 2.5 μM, incubation 12 h): 1.139 ± 0.157
Cell Survival ([2]; 2.5 μM, incubation 24 h): 1.326 ± 0.252
Cell Survival ([2]; 5 μM, incubation 12 h): 1.118 ± 0.201
Cell Survival ([2]; 5 μM, incubation 24 h): 1.282 ± 0.203
Cell Survival ([2]; 10 μM, incubation 12 h): 1.156 ± 0.135
Cell Survival ([2]; 10 μM, incubation 24 h): 0.954 ± 0.012
Cell Survival ([2]; 20 μM, incubation 12 h): 1.113 ± 0.102
Cell Survival ([2]; 20 μM, incubation 24 h): 0.744 ± 0.232
Cell Survival ([2]; 40 μM, incubation 12 h): 1.018 ± 0.091
Cell Survival ([2]; 40 μM, incubation 24 h): 0.752 ± 0.291
Cell Survival ([2]; 50 μM, incubation 12 h): 1.065 ± 0.125
Cell Survival ([2]; 50 μM, incubation 24 h): 0.668 ± 0.124
concentration up to which more than 80% of the cells were viable ([2]; both IEC-6/TRPV1+ and IEC-6/TRPV1-, incubated 24 h): 10 µM
